A word on the half-life: it is how long it takes for the measured level to halve. By GI50 is commonly meant the concentration at which growth is held to half of that of the control. What is called AUC(0-t) is the area under the concentration-time curve up to a stated or last time point. For orientation: CL/F means clearance divided by bioavailability, as obtained after extravascular dosing. As usually defined, the Cmax is the maximum level reached in the sampled fluid or tissue. The term Tmax denotes the time at which the peak concentration occurs. What is called MRT is a mean duration of stay, worked out from the concentration-time curve.

We go through 30 molecules from patent US12312334B2, “Quinoxaline compounds and uses thereof” (BOARD OF REGENTS OF THE UNIVERSITY OF NEBRASKA, priority 2017, dated 2025).

Data set [1] in a line: in-vitro metabolic stability in human liver S9 fraction. Type of data set: in vitro ADME. To be noted: for microsomal CLint / half-life: human liver S-9 fraction; for microsomal CLint: read-out: intrinsic clearance. Here is the method:
(§1) A metabolic stability profile, as well as oral and intravenous dose pharmacokinetics in mice was characterized. The in-vitro metabolic stability of 39-100 was determined using human liver S9 fraction (XenoTech, LLC, USA). 7-hydroxycoumarin (glucuronidation and sulphation) and testosterone (CYP hydroxylation) were used as positive controls for in-vitro metabolic stability study. The oral and intravenous dose pharmacokinetic studies were performed in Balb/c mice. The oral dose of 39-100 was 10 mg/kg, and the intravenous dose was 1 mg/kg. Sample analysis was performed by liquid chromatography-tandem mass spectrometry (SCIEX QTRAP 4000 LC-MS/MS System). For metabolite identification, samples were acquired by MRM-information dependent acquisition-enhanced product ion (MRM-IDA-EPI) scans, enhanced mass spectrometry-IDA-EPI scans, neutral loss, and precursor ion scan methods. Metabolites of 39-100 were characterized by Analyst 1.6.2, LightSight 2.3.1, and ChemDraw Professional-15 software.

The subject of data set [2] is TNFα induced NFκB transcription activity. The experiment in a line: cell-based TNFα induced IKKβ mediated NFκB activation luciferase reporter assay. Details: TNFα induced NFκB transcription activity % Inhibition: concentration or dose not given beside the values. From the text:
Compound 13-197 has a structure:

The subject of another data set is SW620. The experiment in a line: growth inhibition assay, colon cancer cell line SW620. The data set is classed as cell-based. To be noted: Homo sapiens, SW-620.
A further data set has as its system HT29. The experiment in a line: growth inhibition assay, colon cancer cell line HT29. To be noted: Homo sapiens, HT-29. The data set is classed as cell-based.
The subject of the next data set is DLD1. The data set can be described thus: growth inhibition assay, colon cancer cell line DLD1. The data set is classed as cell-based. To be noted: Homo sapiens, DLD-1.
A further data set deals with AsPC1. The data set can be described thus: growth inhibition assay, pancreatic cancer cell line AsPC1. Type of data set: cell-based. To be noted: Homo sapiens.
For a further data set, the system named is HCT116. The data set can be described thus: growth inhibition assay, colon cancer cell line HCT116. The data set is classed as cell-based. To be noted: Homo sapiens, HCT-116.
The next data set deals with Suit2. The experiment in a line: growth inhibition assay, pancreatic cancer cell line Suit2. The data set is classed as cell-based. To be noted: SUIT-2.
A further data set concerns S2013. The experiment in a line: growth inhibition assay, pancreatic cancer cell line S2013. Type of data set: cell-based.
For a further data set, the system named is MiaPaCa2. The data set can be described thus: growth inhibition assay, pancreatic cancer cell line MiaPaCa2. The data set is classed as cell-based. To be noted: Homo sapiens, MIA PaCa-2.
The subject of a further data set is HCT116 cancer cells. The data set can be described thus: HCT116 colon tumor xenograft growth inhibition study. The data set is classed as in vivo. To be noted: HCT116 xenograft in athymic mice, 40 mg/kg for 2 weeks, preliminary results. Here is the method: Colon tumor xenografts were established in immune deficient (athymic: 4-6 weeks old) mice. Briefly, exponentially growing (70-80% confluent) HCT116 cancer cells were trypsinized, counted using a hemocytometer and stained with trypan blue to ensure only healthy cells are counted. Cells in suspension were added to matrigel and 4×10^6 cells/100 μl of volume were injected into the flanks of mice. Post-injection, mice were monitored on a daily basis to determine tumor growth. The tumor onset and progression was examined through palpation. Tumor diameter was measured using digital calipers and the tumor volume (in mm^3) was calculated using the formula=(width)^2×length/2. Mice were randomly separated into two groups and were dosed with either vehicle or 40 mg/kg of 39-100 for 2 weeks.

The nature of data set [3]: oral and intravenous dose pharmacokinetics in mice. The data set is classed as in vivo, Balb/c mice. To be noted: for MRT inf: read-out: MRT 0-∞. Here is the method:
as §1

The mark [4] stands for this setting: Balb/c, mouse, plasma, Oral: 10 mg/kg.

Where two headings read alike, the source gives them in different places.

Consider `O=C(Nc1ccc(Br)cc1)Nc1ccc2nc(-c3ccco3)c(-c3ccco3)nc2c1` [13-197, reference compound], for which the microsomal CLint in [1] (human liver S9 fraction) was found to be 12.2 µL/min/mg. Besides, the half-life in [1] was 0.95 h. In addition, the “TNFα induced NFκB transcription activity % Inhibition” value in [2] is on record as 32.9 ± 3.4%. Also, the GI50 in the data set with SW620 is 9.2 ± 2.5 µM; in the data set with HT29, 6.7 ± 1 µM; in the data set on DLD1, 10.9 ± 2.1 µM; in the data set with AsPC1, 12 ± 4 µM; with HCT116, 8.8 ± 2.2 µM; with Suit2 it was 10.7 ± 0.5 µM. In addition, the concentration for 50% growth inhibition (GI50) in the data set on S2013 is 9.1 ± 1.1 µM; with MiaPaCa2 it was 10 ± 2.2 µM.
Consider `O=C(Nc1ccc(Br)cc1)Nc1ccc2ncc(-c3cn[nH]c3)nc2c1` [39-09D], for which the “TNFα induced NFκB transcription activity % Inhibition” value in data set [2] stood at 48.4 ± 2.8%.
Same read-out and setting: to `Cn1cc(-c2cnc3ccc(NC(=O)Nc4ccc(Br)cc4)cc3n2)cn1` [39-055] belongs 71.0 ± 4.8%.
On the same count and under the same terms, then `Cn1cc(-c2cnc3cc(NC(=O)Nc4ccc(Br)cc4)ccc3n2)cn1` [39-061], with 40.7 ± 2.9%.
The same measure, in the same setting: to `Cn1ccc(-c2cnc3ccc(NC(=O)Nc4ccc(Br)cc4)cc3n2)n1` [39-062] belongs 33.0 ± 5.7%.
With `Cn1cc(-c2cnc3ccc(NC(=O)Nc4ccc(F)cc4)cc3n2)cn1` [39-066], the “TNFα induced NFκB transcription activity % Inhibition” value in data set [2] is recorded as 42.9 ± 9.8%.
Same read-out and setting: to `Cn1cc(-c2cnc3ccc(NC(=O)Nc4ccccc4)cc3n2)cn1` [39-071] belongs 31.2 ± 7.6%; to `Cn1ccc(-c2cnc3cc(NC(=O)Nc4ccc(Br)cc4)ccc3n2)n1` [39-072], 46.8 ± 4.4%.
The same measure, in the same setting: then `Cn1cc(-c2cnc3ccc(NC(=O)Cc4ccc(Br)cc4)cc3n2)cn1` [39-076], with 36.1 ± 8.8%.
For the molecule `Cc1nn(C)cc1-c1cnc2ccc(NC(=O)Nc3ccc(Br)cc3)cc2n1` [39-077], in [2], the “TNFα induced NFκB transcription activity % Inhibition” value is 37.7 ± 5.1%.
As for `Cn1cc(-c2cnc3ccc(NC(=O)Nc4ccc([N+](=O)[O-])cc4)cc3n2)cn1` [39-084], the “TNFα induced NFκB transcription activity % Inhibition” value in data set [2] is 36.4 ± 6.3%.
Same read-out and setting: to `Cc1ccc(NC(=O)Nc2ccc3ncc(-c4cnn(C)c4)nc3c2)cc1` [39-085] belongs 53.0 ± 2.9%; to `Cn1cc(-c2cnc3ccc(NC(=O)Nc4cccc(Br)c4)cc3n2)cn1` [39-086], 88.9 ± 1.8%.
On to `Cn1cc(-c2cnc3ccc(NC(=O)Nc4ccc(F)c(Br)c4)cc3n2)cn1` [39-100], for which, in [1] (human liver S9 fraction, 60-minute incubation), the parent compound present result is “More than 85%”. For the same molecule, in [1] (human liver S9 fraction), the microsomal CLint was determined as 1.59 µL/min/mg. Moreover, the half-life in data set [1] was 7.273 h; in data set [3] (Balb/c, mouse, plasma, IV: 1 mg/kg, read-out: t0.5 (elimination half-life) (converted)) it was 3.9 h. For the same molecule, the metabolites detected result in [1] (metabolite identification by LC-MS/MS, matrix not stated) was “In very small fraction glucuronidation, sulfonation, and demethylation”. Further, in [2], the “TNFα induced NFκB transcription activity % Inhibition” value came out at 83.8 ± 1.6%. In data set [2] (all the assays tested (FIG. 1 and FIG. 2)), the “potency relative to 13-197” value is listed as “more potent than 13-197”. The colon tumor growth entry in the data set with HCT116 cancer cells is “reduced colon tumorgrowth”. Besides, the 50% growth inhibitory concentration (GI50) was found to be 8.4 ± 2.3 µM in the data set on SW620; 3.1 ± 0.2 µM in the data set with HT29; 8.4 ± 2.3 µM with DLD1; 7.2 ± 2.6 µM with AsPC1; 3.8 ± 1.2 µM in the data set on HCT116; 4.5 ± 0.4 µM with Suit2. Moreover, the GI50 in the data set with S2013 stood at 4.1 ± 0.5 µM; in the data set with MiaPaCa2, 3.2 ± 0.3 µM. The MRT inf in data set [3] (Balb/c, mouse, plasma, IV: 1 mg/kg) was found to be 1.4 h; in data set [3] (setting [4]), 3.9 h. The AUC(0-t) in data set [3] (setting [4]) was found to be 12400 ng·h/mL. In addition, the CL/F in data set [3] (setting [4]) is 13.3 mL/min/kg. Also, the peak level in [3] (setting [4]) (Cmax) was 2330 ng/mL. In addition, the Tmax in [3] (setting [4]) was 2 h. Also, the bioavailability in [3] (Balb/c, mouse, plasma, Oral: 10 mg/kg vs IV: 1 mg/kg) worked out at 208%. Further, the AUC(0-inf) in data set [3] (Balb/c, mouse, plasma, intravenous dose 1 mg/kg, read-out: area under the curve (AUC0-∞)) was 598 ng·h/mL; in data set [3] (Balb/c, mouse, plasma, oral administration 10 mg/kg, read-out: AUC0-∞), 12400 ng·h/mL. The MRT was 1.4 h in data set [3] (Balb/c, mouse, plasma, intravenous dose 1 mg/kg, read-out: mean residence time (MRT)) and 3.9 h in data set [3] (Balb/c, mouse, plasma, oral administration 10 mg/kg, read-out: MRT). Besides, the C0-iv in [3] (IV: 1 mg/kg) is 709.9 ng/mL. The “CL/F (clearance)” value in data set [3] (IV: 1 mg/kg) worked out at 27.8 mL/min/kg. Further, the figures for the λZ in [3] (IV: 1 mg/kg) and in data set [3] (Oral: 10 mg/kg) were 0.177 h⁻¹ and 0.295 h⁻¹, respectively. Further, the t0.5 in data set [3] (Oral: 10 mg/kg) was determined as 2.35 h.
As for `Cn1cc(-c2cnc3ccc(NC(=O)Nc4ccccc4Br)cc3n2)cn1` [39-102], the “TNFα induced NFκB transcription activity % Inhibition” value in [2] came out at 62.4 ± 1.2%.
On the same count and under the same terms, to `Cn1cc(-c2cnc3ccc(NC(=O)Nc4ccc(F)c(C(F)(F)F)c4)cc3n2)cn1` [42-062] belongs 83.7 ± 0.3%.
Regarding `Cn1cc(-c2cnc3ccc(NC(=O)Nc4cccc(Cl)c4)cc3n2)cn1` [42-064], in data set [2], the “TNFα induced NFκB transcription activity % Inhibition” value was 96.3 ± 1.5%.
Consider `Cn1cc(-c2cnc3ccc(NC(=O)Nc4ccc(F)c(Cl)c4)cc3n2)cn1` [42-065], for which the “TNFα induced NFκB transcription activity % Inhibition” value in data set [2] is listed as 85.3 ± 2.8%.
With `Cc1cccc(NC(=O)Nc2ccc3ncc(-c4cnn(C)c4)nc3c2)c1` [42-066], the “TNFα induced NFκB transcription activity % Inhibition” value in [2] is given as “Inactive”.
Same read-out and setting: then `Cn1cc(-c2cnc3ccc(NC(=O)Nc4cccc(C(F)(F)F)c4)cc3n2)cn1` [42-071], with 80.5 ± 2.5%; and `Cn1cc(-c2cnc3ccc(NC(=O)Nc4ccc5c(c4)OCO5)cc3n2)cn1` [42-072], with “inactive”; and `Cn1cc(-c2cnc3ccc(NC(=O)Nc4ccc5c(c4)OCCO5)cc3n2)cn1` [42-073], with “inactive”.
As for `Cc1cc(NC(=O)Nc2ccc3ncc(-c4cnn(C)c4)nc3c2)ccc1F` [42-074], the “TNFα induced NFκB transcription activity % Inhibition” value in [2] is 10.4 ± 3.9%.
As to `COc1cccc(NC(=O)Nc2ccc3ncc(-c4cnn(C)c4)nc3c2)c1` [42-076], the “TNFα induced NFκB transcription activity % Inhibition” value in data set [2] is recorded as 49.7 ± 2.6%.
For `Cn1cc(-c2cnc3ccc(NC(=O)Nc4ccc5sccc5c4)cc3n2)cn1` [42-077], the “TNFα induced NFκB transcription activity % Inhibition” value in data set [2] was “inactive”.
For the molecule `COc1cc(NC(=O)Nc2ccc3ncc(-c4cnn(C)c4)nc3c2)ccc1F` [42-078], in data set [2], the “TNFα induced NFκB transcription activity % Inhibition” value amounted to 33.5 ± 3.7%.
On to `Cn1cc(-c2cnc3ccc(NC(=O)Nc4cccc(OC(F)(F)F)c4)cc3n2)cn1` [42-81B], for which the “TNFα induced NFκB transcription activity % Inhibition” value in data set [2] was found to be 60.9 ± 2.9%.
For the molecule `Cn1cc(-c2cnc3ccc(NC(=O)Nc4ccc5c(c4)CCC5)cc3n2)cn1` [42-091], the “TNFα induced NFκB transcription activity % Inhibition” value in [2] was “inactive”.
Turning to `Cn1cc(-c2cnc3ccc(NC(=O)Nc4ccc(F)c(OC(F)(F)F)c4)cc3n2)cn1` [42-096], the “TNFα induced NFκB transcription activity % Inhibition” value in [2] was found to be 64.6 ± 3.3%.
Turning to `Cn1cc(-c2cnc3ccc(NC(=O)Nc4ccc5c(c4)CCO5)cc3n2)cn1` [42-097], in [2], the “TNFα induced NFκB transcription activity % Inhibition” value is “inactive”.
